{"source": "ChEMBL document CHEMBL5120850", "about": "“Conformational adjustment overcomes multiple drug-resistance mutants of tropomyosin receptor kinase” (Eur J Med Chem, 2022)", "key": {"BaF3 [1]": {"tested_on": "BaF3", "assay": "Antitumor activity against mouse Ba/F3 cells expressing in ETV6-TRKC-G623R mutant allografted in BALB/cA mouse assessed as reduction in tumor growth at 30 mg/kg twice daily for 12 to 14 days relative to control", "details": "BaF3, read-out: TGI"}, "BaF3 [2]": {"tested_on": "BaF3", "assay": "Antitumor activity against mouse Ba/F3 cells expressing in […] wildtype allografted in BALB/cA mouse assessed as reduction in tumor growth at 30 mg/kg twice daily for 12 to 14 days relative to control", "type": "functional", "details": "time 12-14 day, read-out: TGI"}}, "data": [{"smiles": "C[C@@H]1CCc2ncc(F)cc2[C@H]2CCCN2c2ccn3ncc(c3n2)C(=O)N1", "note": "[SELITRECTINIB]", "values": [{"measurement": "inhibition in vivo at 30 mg/kg", "setting": "BaF3 [1]", "value": 73, "unit": "%"}]}, {"smiles": "O=C(Nc1cnn2ccc(N3CCC[C@@H]3c3cc(F)ccc3F)nc12)N1CC[C@H](O)C1", "note": "[LAROTRECTINIB]", "values": [{"measurement": "inhibition in vivo at 30 mg/kg", "setting": "BaF3 [2]", "value": 30, "unit": "%"}]}]}
